Common to all, as to assay type: in vivo
The test system of test [1] is Echinochloa crus-galli (ECHCG). Briefly: Glasshouse assay for herbicidal activity, pre-/post-emergence (percentage phytotoxicity). Particulars: Echinochloa crus-galli, Rate 250 g/ha, 100%=total damage, 0%=no damage. The essentials: (§1)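 Visual score (0–100% damage) at 15DAA post-em / 20DAA pre-em. Pots, std soil; treated 1 d (pre) or ~12 d (post) after sowing. 24/18 °C warm spp., 20/16 °C cool spp., 16 h light, 65% RH.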

The subject of test [2] is Alopecurus myosuroides (ALOMY). The description is as above. The following applies: Alopecurus myosuroides, Rate 250 g/ha, 100%=total damage, 0%=no damage. The essentials: as §1
Test [3] has as its system Avena fatua (AVEFA). The description is as above. Particulars: Avena fatua, Rate 250 g/ha, 100%=total damage, 0%=no damage. The essentials: as §1
The test system of test [4] is Lolium perenne (LOLPE). The test is described as above. The following applies: Lolium perenne, Rate 250 g/ha, 100%=total damage, 0%=no damage. The essentials:
as §1

Test [5] deals with wheat. Nature of the test: Post-emergence herbicidal activity against cereal crops (wheat) +/- safener, crop selectivity. The following applies: 100%=total damage to plant, 0%=no damage; for Post-emergence herbicidal activity against wheat (percentage phytotoxicity), +CQC: 250 g/ha, plus safener cloquintocet-mexyl (CQC) applied at 50 g/ha; for percent phytotoxicity (crop damage) to wheat at 250 g/ha: Triticum aestivum, 360 h, without safener, read-out: Post-emergence herbicidal activity against wheat (percentage phytotoxicity), Wheat - CQC. The essentials:
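Test plants raised in pots in a glasshouse (24/18 °C warm or 20/16 °C cool species day/night, 16 h light, 65% humidity) and treated post-emergence about 12 days after sowing. Visual percentage phytotoxicity scored 15 days after application (0% = no damage, 100% = total damage).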

The mark [6] stands for this setting: post-emergence, 360 h, post-emergence, visual assessment 15 DAA, read-out: Post-emergence herbicidal activity (percentage phytotoxicity), ECHCG POST.
[7] abbreviates: pre-emergence, 480 h, pre-emergence, visual assessment 20 DAA, read-out: Pre-emergence herbicidal activity (percentage phytotoxicity), ECHCG PRE.
Setting [8] is: 360 h, post-emergence, visual assessment 15 DAA, read-out: Post-emergence herbicidal activity (percentage phytotoxicity), ALOMY POST.
Where [9] appears, read: 480 h, pre-emergence, visual assessment 20 DAA, read-out: Pre-emergence herbicidal activity (percentage phytotoxicity), ALOMY PRE.
Setting [10] is: post-emergence, 360 h, post-emergence, visual assessment 15 DAA, read-out: Post-emergence herbicidal activity (percentage phytotoxicity), AVEFA POST.
Where [11] appears, read: pre-emergence, 480 h, pre-emergence, visual assessment 20 DAA, read-out: Pre-emergence herbicidal activity (percentage phytotoxicity), AVEFA PRE.
Where [12] appears, read: post-emergence, 360 h, post-emergence, visual assessment 15 DAA, read-out: Post-emergence herbicidal activity (percentage phytotoxicity), LOLPE POST.
[13] abbreviates: pre-emergence, 480 h, pre-emergence, visual assessment 20 DAA, read-out: Pre-emergence herbicidal activity (percentage phytotoxicity), LOLPE PRE.

These results are taken from patent US10301295B2, “Herbicidal compounds” (Syngenta Participations AG, priority 2014, dated 2019).

Each structure is given as a SMILES string. Read-outs that look alike come from different tables or passages of the source.

In the case of `Cc1cc(C)c(C2C(=O)CC(CCNC(=O)NC(=O)c3ccccc3F)C2=O)c(C)c1` (stereo not drawn) [Compound A54], the pest or weed control at 250 g/ha was 100% in test [1] (setting [6]); 80% in test [1] (setting [7]); 100% in test [2] (setting [8]); 60% in test [2] (setting [9]); 100% in test [3] (setting [10]); 60% in test [3] (setting [11]). The values for the pest or weed control at 250 g/ha in test [4] (setting [12]) and in test [4] (setting [13]) were 100% and 80%, respectively. The “Post-emergence herbicidal activity against wheat (percentage phytotoxicity), +CQC” value in test [5] was determined as 80%. Besides, the percent phytotoxicity (crop damage) to wheat at 250 g/ha in test [5] amounted to 90%.
Regarding `Cc1cc(C)c(C2C(=O)CC(CCNC(=O)NC(=O)c3cc(C(F)(F)F)ccc3Cl)C2=O)c(C)c1` (stereo not drawn) [Compound A62], the pest or weed control at 250 g/ha in test [1] (setting [6]) was found to be 80%; in test [1] (setting [7]) it was 80%; in test [2] (setting [8]), 90%; in test [2] (setting [9]) it was 70%; in test [3] (setting [10]), 80%; in test [3] (setting [11]), 30%. The values for the pest or weed control at 250 g/ha in test [4] (setting [12]) and in test [4] (setting [13]) were 80% and 40%, respectively. Also, the “Post-emergence herbicidal activity against wheat (percentage phytotoxicity), +CQC” value in test [5] worked out at 70%. Moreover, in test [5], the percent phytotoxicity (crop damage) to wheat at 250 g/ha came to 80%.
As to `Cc1cc(C)c(C2C(=O)CC(CCNC(=O)Nc3cc(C(C)(C)F)ncn3)C2=O)c(C)c1` (stereo not drawn) [Compound A16], the pest or weed control at 250 g/ha turned out to be 80% in test [1] (setting [6]); 100% in test [1] (setting [7]); 90% in test [2] (setting [8]); 80% in test [2] (setting [9]); 100% in test [3] (setting [10]); 70% in test [3] (setting [11]). Besides, the pest or weed control at 250 g/ha in test [4] (setting [12]) and in test [4] (setting [13]) was 90% each time. Besides, the “Post-emergence herbicidal activity against wheat (percentage phytotoxicity), +CQC” value in test [5] is 50%. Further, the percent phytotoxicity (crop damage) to wheat at 250 g/ha in test [5] worked out at 80%.
Take `Cc1cc(C)c(C2C(=O)CC(CCNC(=O)NC(=O)c3cc(F)c(Cl)cc3Cl)C2=O)c(C)c1` (stereo not drawn) [Compound A65]: the pest or weed control at 250 g/ha in test [1] (setting [6]) came to 80%; in test [1] (setting [7]), 70%; in test [2] (setting [8]), 100%; in test [2] (setting [9]), 80%; in test [3] (setting [10]), 90%; in test [3] (setting [11]), 70%. Moreover, the pest or weed control at 250 g/ha in test [4] (setting [12]) is 100%; in test [4] (setting [13]), 80%. Besides, in test [5], the “Post-emergence herbicidal activity against wheat (percentage phytotoxicity), +CQC” value is 40%. For the same molecule, the percent phytotoxicity (crop damage) to wheat at 250 g/ha in test [5] was determined as 80%.
On to `Cc1cc(C)c(C2C(=O)CC(CCNC(=O)Nc3ccccn3)C2=O)c(C)c1.Cl` (stereo not drawn) [Compound A3], for which the pest or weed control at 250 g/ha turned out to be 100% in test [1] (setting [6]); 100% in test [1] (setting [7]); 100% in test [2] (setting [8]); 100% in test [2] (setting [9]); 90% in test [3] (setting [10]); 80% in test [3] (setting [11]). Besides, the values for the pest or weed control at 250 g/ha in test [4] (setting [12]) and in test [4] (setting [13]) were 100% and 90%, respectively. Moreover, in test [5], the “Post-emergence herbicidal activity against wheat (percentage phytotoxicity), +CQC” value is listed as 60%. Besides, the percent phytotoxicity (crop damage) to wheat at 250 g/ha in test [5] was found to be 90%.
`Cc1cc(C)c(C2C(=O)CC(CCNC(=O)N3CCOCC3)C2=O)c(C)c1` (stereo not drawn) [Compound A47]: the pest or weed control at 250 g/ha in test [1] (setting [6]) came to 60%; in test [1] (setting [7]) it was 80%; in test [2] (setting [8]), 60%; in test [2] (setting [9]), 60%; in test [3] (setting [10]), 70%; in test [3] (setting [11]) it was 0%. Besides, the pest or weed control at 250 g/ha in test [4] (setting [12]) was found to be 30%; in test [4] (setting [13]) it was 50%. Further, the “Post-emergence herbicidal activity against wheat (percentage phytotoxicity), +CQC” value in test [5] is on record as 0%. Also, the percent phytotoxicity (crop damage) to wheat at 250 g/ha in test [5] is 50%.
